pKi: −log10 of the molar value.
Columns and labels:
[1] = biological target: T1, ALK-wt kinase domain (Homo sapiens, UniProt Q9UM73); experiment: Biochemical kinase assay, ALK-wt; conditions: 2 mM ATP substrate solution, read-out: Ki^app ALK-wt
T1 construct: TRKA-wt (1 nM, BPS Bio, 40280) kinase domains in buffer; purchased Carna 08-518
Procedure: (§1) First, 250 nL of compound dissolved in DMSO (100-fold of the desired concentration) was dispensed into a 384-well plate. A 12.5 μL substrate solution containing ATP (2 mM) and fluorogenic phosphorylation substrate AQT0101 (26 μM for ALK and ROS1, AssayQuant) or AQT0104 (26 μM for TRKA, AssayQuant) in buffer (50 mM HEPES pH 7.5, 0.01% Brij-35, 0.5 mM EGTA, 10 mM MgCl2) was added and mixed thoroughly. Then, a 12.5 μL kinase solution containing ALK-wt (1.5 nM, Carna, 08-518), ALK ALK L1196M/G1202R (3 nM, SignalChem, A19-12NG), ROS1-wt (0.6 nM, Carna, 08-163), ROS1-G2032R (0.5 nM, SignalChem, R14-12BG), or TRKA-wt (1 nM, BPS Bio, 40280) kinase domains in buffer ([…] HEPES pH 7.5, 0.01% Brij-35, 2% glycerol, 0.4 mg/mL BSA, 0.5 mM EGTA, and 10 mM MgCl2) was added and mixed thoroughly. The plate was sealed and read by SpectraMax Paradigm at λ=485 nm every 2 minutes for 120 minutes at 30° C. Initial rates of reaction (v) were calculated from the change in fluorescence intensity over time during the initial, linear portion of the reaction. Finally, apparent inhibitory constants (Ki^app) were determined from regression of v and I (inhibitor concentration) to Morrison Equation (E=enzyme concentration): […]

[2] = biological target: T2, ALK L1196M/G1202R kinase domain (Homo sapiens, UniProt Q9UM73, G1202R/L1196M); experiment: Biochemical kinase assay, ALK L1196M/G1202R; conditions: 2 mM ATP substrate solution, read-out: Ki^app ALK-L1196M-G1202R
T2 construct: TRKA-wt (1 nM, BPS Bio, 40280) kinase domains in buffer; purchased SignalChem A19-12NG
Procedure: as §1

[3] = biological target: T3, ROS1-wt kinase domain (Homo sapiens, UniProt P08922); experiment: Biochemical kinase assay, ROS1-wt; conditions: 2 mM ATP substrate solution, read-out: Ki^app ROS1-wt
T3 construct: TRKA-wt (1 nM, BPS Bio, 40280) kinase domains in buffer; purchased Carna 08-163
Procedure: as §1

[4] = biological target: T4, ROS1-G2032R kinase domain (Homo sapiens, UniProt P08922, G2032R); experiment: Biochemical kinase assay, ROS1-G2032R; conditions: 2 mM ATP substrate solution, read-out: Ki^app ROS1-G2032R
T4 construct: TRKA-wt (1 nM, BPS Bio, 40280) kinase domains in buffer; purchased SignalChem R14-12BG
Procedure: as §1

[5] = biological target: T5, TRKA-wt kinase domain (Homo sapiens, UniProt P04629); experiment: Biochemical kinase assay, TRKA-wt; conditions: 2 mM ATP substrate solution, read-out: Ki^app TRKA-wt
T5 construct: TRKA-wt (1 nM, BPS Bio, 40280) kinase domains in buffer; purchased BPS Bio 40280
Procedure: as §1

pKi [1] | pKi [2] | pKi [3] | pKi [4] | pKi [5] | SMILES
> 7.30 | > 7.30 | > 7.30 | > 7.30 | 6.30 to 7.30 | C[C@H]1Oc2cc(cnc2N)-c2c(CC3CC3)cnn2Cc2cccnc2-c2ccc(F)cc21 [Compound 146]
> 7.30 | > 7.30 | > 7.30 | > 7.30 | < 6.30 | CCn1ncc2c1-c1cnc(N)c(c1)OCc1cc(F)ccc1-n1nccc1C2 [Compound 41]
> 7.30 | 6.30 to 7.30 | > 7.30 | > 7.30 | < 6.30 | CCn1ncc2c1-c1cnc(N)c(c1)O[C@H](C)c1cc(F)ccc1-c1nn(C(F)F)cc1C2 [Compound 86]
> 7.30 | > 7.30 | > 7.30 | > 7.30 | < 6.30 | Nc1ncc2cc1OCc1cc(F)ccc1-n1nc(Cl)cc1Cc1nnn(CC3CC3)c1-2 [Compound 110]
> 7.30 | > 7.30 | > 7.30 | > 7.30 | < 6.30 | Cc1nc2c(s1)Cn1cnc(C#N)c1-c1cnc(N)c(c1)O[C@H](C)c1cc(F)ccc1-2 [Compound 65]
> 7.30 | > 7.30 | > 7.30 | > 7.30 | < 6.30 | CCn1ncc2c1-c1cnc(N)c(c1)OCc1cc(F)ccc1-n1ncc(F)c1C2 [Compound 48]
> 7.30 | > 7.30 | > 7.30 | > 7.30 | > 7.30 | CCn1ncc2c1-c1cnc(N)c(c1)O[C@H](C)c1cc(F)ccc1-c1nccc(OC)c1C2 [Compound 151]
> 7.30 | > 7.30 | > 7.30 | > 7.30 | > 7.30 | CCn1ncc2c1-c1cnc(N)c(c1)O[C@H](C)c1cc(F)ccc1-n1nc(C(F)F)cc1C2 [Compound 102]
> 7.30 | > 7.30 | > 7.30 | > 7.30 | > 7.30 | CCn1ncc2c1-c1cnc(N)c(c1)O[C@H](C)c1cc(F)ccc1-n1nc(OC)cc1C2 [Compound 98]
> 7.30 | > 7.30 | > 7.30 | > 7.30 | 6.30 to 7.30 | CCn1cc2c(n1)-c1ccc(F)cc1[C@@H](C)Oc1cc(cnc1N)-c1c(cnn1CC1CC1)C2 [Compound 140]
> 7.30 | > 7.30 | > 7.30 | > 7.30 | 6.30 to 7.30 | CCn1nnc2c1-c1cnc(N)c(c1)O[C@H](C)c1cc(F)ccc1-c1nc(C)sc1C2 [Compound 78]
> 7.30 | > 7.30 | > 7.30 | > 7.30 | > 7.30 | CCc1nsc2c1-c1cnc(N)c(c1)O[C@H](C)c1cc(F)ccc1-c1nn(C)cc1C2 [Compound 155]
> 7.30 | > 7.30 | > 7.30 | 6.30 to 7.30 | < 6.30 | C[C@H]1Oc2cc(cnc2N)-c2c(c(Cl)nn2CC2CC2)Cc2cn(C)nc2-c2ccc(F)cc21 [Compound 133]
> 7.30 | > 7.30 | > 7.30 | > 7.30 | < 6.30 | Nc1ncc2cc1OCc1cc(F)ccc1-n1nc(C(F)F)cc1Cc1cnn(CC3CC3)c1-2 [Compound 138]
> 7.30 | > 7.30 | > 7.30 | > 7.30 | < 6.30 | C[C@H]1Oc2cc(cnc2N)-c2c(cnn2CC(F)(F)F)Cc2cn(C)nc2-c2ccc(F)cc21 [Compound 27]
> 7.30 | > 7.30 | > 7.30 | 6.30 to 7.30 | < 6.30 | CCc1noc2c1-c1cnc(N)c(c1)OCc1cc(F)ccc1-c1nn(C)cc1C2 [Compound 30]
> 7.30 | > 7.30 | > 7.30 | > 7.30 | 6.30 to 7.30 | Cc1cc2n(n1)-c1ccc(F)cc1[C@@H](C)Oc1cc(cnc1N)-c1c(c(C)nn1CC1CC1)C2 [Compound 141]
> 7.30 | > 7.30 | > 7.30 | > 7.30 | 6.30 to 7.30 | CCn1ncc2c1-c1cnc(N)c(c1)OCc1cc(F)ccc1-n1nc(Cl)cc1C2 [Compound 75]

pKi [1] | pKi [2] | pKi [3] | pKi [4] | pKi [5] | SMILES
> 7.30 | > 7.30 | > 7.30 | 6.30 to 7.30 | < 6.30 | C[C@H]1Oc2cc(cnc2N)-c2c(C#N)nnn2Cc2cn(C)nc2-c2ccc(F)cc21 [Compound 24]
> 7.30 | > 7.30 | > 7.30 | > 7.30 | < 6.30 | C[C@H]1Oc2cc(cnc2N)-c2c(C#N)ncn2Cc2cn(C)nc2-c2ccc(F)cc21 [Compound 13]
> 7.30 | 6.30 to 7.30 | > 7.30 | > 7.30 | < 6.30 | CCn1ncc2c1-c1cnc(N)c(c1)OC(C)c1cc(F)ccc1-n1cncc1C2 (stereo not shown) [Compound 38]
> 7.30 | > 7.30 | > 7.30 | > 7.30 | 6.30 to 7.30 | C[C@H]1Oc2cc(cnc2N)-c2c(nn(C)c2CC2CC2)Cc2ccnn2-c2ccc(F)cc21 [Compound 177]
> 7.30 | > 7.30 | > 7.30 | > 7.30 | 6.30 to 7.30 | CCn1ncc2c1-c1cnc(N)c(n1)OC(C)c1cc(F)ccc1-c1nccn1C2 (stereo not shown) [Compound 163]
> 7.30 | > 7.30 | > 7.30 | > 7.30 | > 7.30 | CCn1ncc2c1-c1cnc(N)c(c1)O[C@H](C)c1cc(F)ccc1-n1nc(Cl)cc1C2 [Compound 74]
> 7.30 | > 7.30 | > 7.30 | > 7.30 | < 6.30 | C[C@H]1Oc2cc(cnc2N)-c2c(C#N)ncn2Cc2cc(F)cnc2-c2ccc(F)cc21 [Compound 63]
> 7.30 | > 7.30 | > 7.30 | > 7.30 | 6.30 to 7.30 | CCn1ncc2c1-c1cnc(N)c(c1)O[C@H](C)c1cc(F)ccc1-c1nn(C(C)(C)C)cc1C2 [Compound 150]
> 7.30 | > 7.30 | > 7.30 | > 7.30 | < 6.30 | C[C@H]1Oc2cc(cnc2N)-c2c(c(C#N)nn2CC2CC2)Cc2cccnc2-c2ccc(F)cc21 [Compound 123]
> 7.30 | > 7.30 | > 7.30 | > 7.30 | > 7.30 | CCn1ncc2c1-c1cnc(N)c(c1)O[C@H](C)c1cc(F)ccc1-c1nn(C)cc1C2 [Compound 1]
> 7.30 | > 7.30 | > 7.30 | > 7.30 | 6.30 to 7.30 | CCn1ncc2c1-c1cnc(N)c(c1)O[C@H](C)c1cc(F)ccc1-n1nc(C(F)(F)F)cc1C2 [Compound 52]
> 7.30 | 6.30 to 7.30 | > 7.30 | > 7.30 | < 6.30 | C[C@H]1Oc2cc(cnc2N)-c2c(C#N)ncn2Cc2ccncc2-c2ccc(F)cc21 [Compound 11]
> 7.30 | > 7.30 | > 7.30 | > 7.30 | 6.30 to 7.30 | C[C@H]1Oc2cc(cnc2N)-c2c(CC(F)F)nn(C)c2Cc2cc(C(F)F)nn2-c2ccc(F)cc21 [Compound 180]
> 7.30 | > 7.30 | > 7.30 | > 7.30 | 6.30 to 7.30 | C[C@H]1Oc2cc(cnc2N)-c2c(C#N)nn(C)c2Cc2csnc2-c2ccc(F)cc21 [Compound 143]
> 7.30 | > 7.30 | > 7.30 | > 7.30 | > 7.30 | CCc1nn(C)c2c1-c1cnc(N)c(c1)O[C@H](C)c1cc(F)ccc1-c1nn(C)cc1C2 [Compound 171]
> 7.30 | > 7.30 | > 7.30 | > 7.30 | 6.30 to 7.30 | CCn1nnc2c1-c1cnc(N)c(c1)O[C@H](C)c1cc(F)ccc1-c1nn(C)cc1C2 [Compound 20]
> 7.30 | > 7.30 | > 7.30 | > 7.30 | 6.30 to 7.30 | C[C@H]1Oc2cc(cnc2N)-c2c(cnn2CC2CC2)Cc2cc(C(F)F)nn2-c2ccc(F)cc21 [Compound 130]
